Values joined by “and” are separate entries in the source; they are usually repeats but may differ in a detail not shown here. Equal entries are not always repeated.
Test system: Meloidogyne spp (Mixture of Meloidogyne incognita and Meloidogyne hapla)
Settings: in vivo

With `CN1CSC(=S)N(C)C1` [dazomet, 3,5-dimethyltetrahydro-2H-1,3,5-thiadiazine-2-thione] the Observed efficacy was 2% and 0%.

From patent US20060252828A1 (priority 2003, published 2006)
